Measured values reported in patent US9422285B2, “Substituted pyrazolo[1,5-A]-pyridine-3-carboxamides and use thereof” (Bayer Pharma Aktiengesellschaft, priority 2014, dated 2016).

target: T1, recombinant guanylate cyclase reporter cell line (Rattus norvegicus, UniProt P19686+P20595); experiment: Effect on a recombinant guanylate cyclase reporter cell line (B-2); assay type: cell-based; settings: in some cases mean values for individual determinations
T1 construct: expressed in transfected cells
T1 sequence (P19686 1-690): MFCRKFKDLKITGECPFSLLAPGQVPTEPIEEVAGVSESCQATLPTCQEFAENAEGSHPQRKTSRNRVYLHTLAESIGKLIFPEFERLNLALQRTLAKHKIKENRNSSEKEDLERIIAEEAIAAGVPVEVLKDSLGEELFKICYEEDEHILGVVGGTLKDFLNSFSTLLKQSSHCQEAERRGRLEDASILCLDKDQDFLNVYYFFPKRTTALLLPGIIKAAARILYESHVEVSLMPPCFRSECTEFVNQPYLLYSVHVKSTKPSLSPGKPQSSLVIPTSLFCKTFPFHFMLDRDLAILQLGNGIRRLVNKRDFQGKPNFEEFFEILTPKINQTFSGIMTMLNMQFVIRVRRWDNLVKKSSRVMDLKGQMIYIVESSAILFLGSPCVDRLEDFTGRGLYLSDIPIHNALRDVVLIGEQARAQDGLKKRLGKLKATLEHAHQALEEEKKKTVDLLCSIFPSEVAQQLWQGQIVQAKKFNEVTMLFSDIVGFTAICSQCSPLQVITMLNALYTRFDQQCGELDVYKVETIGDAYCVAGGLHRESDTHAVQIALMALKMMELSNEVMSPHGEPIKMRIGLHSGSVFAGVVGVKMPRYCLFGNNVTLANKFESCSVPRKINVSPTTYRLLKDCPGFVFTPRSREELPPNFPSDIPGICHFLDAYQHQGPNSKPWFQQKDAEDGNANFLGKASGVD
T1 sequence (P20595 1-619): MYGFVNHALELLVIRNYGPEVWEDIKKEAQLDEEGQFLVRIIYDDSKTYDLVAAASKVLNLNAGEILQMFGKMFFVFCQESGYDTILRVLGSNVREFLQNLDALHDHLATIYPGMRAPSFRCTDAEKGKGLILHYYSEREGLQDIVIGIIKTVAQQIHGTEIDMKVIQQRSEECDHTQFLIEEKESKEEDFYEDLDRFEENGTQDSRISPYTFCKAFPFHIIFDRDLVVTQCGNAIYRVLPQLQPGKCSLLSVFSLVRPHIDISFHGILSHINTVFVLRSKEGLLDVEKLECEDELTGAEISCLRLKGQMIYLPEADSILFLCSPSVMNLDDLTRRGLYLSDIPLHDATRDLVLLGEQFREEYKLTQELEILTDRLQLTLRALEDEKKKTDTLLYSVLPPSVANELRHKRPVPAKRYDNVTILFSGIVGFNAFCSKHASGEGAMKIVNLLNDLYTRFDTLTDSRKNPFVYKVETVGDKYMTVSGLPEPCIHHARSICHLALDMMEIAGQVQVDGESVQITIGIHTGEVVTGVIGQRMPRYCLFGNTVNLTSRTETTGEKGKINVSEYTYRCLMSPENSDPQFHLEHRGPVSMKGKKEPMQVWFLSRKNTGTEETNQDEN
Protocol: B-2. Effect on a Recombinant Guanylate Cyclase Reporter Cell Line
The cellular effect of the inventive compounds is determined using a recombinant guanylate cyclase reporter cell line, as described in F. Wunder et al., Anal. Biochem. 339, 104-112 (2005).
Representative MEC values (MEC=minimum effective concentration) for the inventive compounds are shown in the table below (in some cases as mean values for individual determinations): […]

SMILES | MEC (minimum effective concentration)
Cc1cc(OCc2c(F)cccc2F)n2nc(C)c(C(=O)N[C@@H](CO)c3cccs3)c2c1 [Example 176, 7-[(2,6-Difluorobenzyl)oxy]-N-[(1S)-2-hydroxy-1-(2-thienyl)ethyl]-2,5-dimethylpyrazolo[1,5-a]pyridine-3-carboxamide] | 0.3 µM
Cc1cc(OCc2c(F)cccc2F)n2nc(C)c(C(=O)NCC3CCc4ccccc4N3)c2c1 (racemic) [Example 82, rac-7-[(2,6-Difluorobenzyl)oxy]-2,5-dimethyl-N-(1,2,3,4-tetrahydroquinolin-2-ylmethyl)pyrazolo[1,5-a]pyridine-3-carboxamide] | 1.0 µM
Cc1cc(OCc2c(F)ccc(F)c2F)n2nc(C)c(C(=O)NC(C)COCC(F)(F)F)c2c1 (racemic) [Example 24, rac-2,5-Dimethyl-7-[(2,3,6-trifluorobenzyl)oxy]-N-[1-(2,2,2-trifluoroethoxy)propan-2-yl]pyrazolo[1,5-a]pyridine-3-carboxamide] | 0.3 µM
Cc1cc(OCc2c(F)cccc2F)n2nc(C3CC3)c(C(=O)NCC(C)(N)CC(F)F)c2c1 (single isomer, unassigned) [Example 56, ent-N-(2-Amino-4,4-difluoro-2-methylbutyl)-2-cyclopropyl-7-[(2,6-difluorobenzyl)oxy]-5-methylpyrazolo[1,5-a]pyridine-3-carboxamide] | 0.3 µM
CCC(C)(N)CNC(=O)c1c(C)nn2c(OCc3c(F)ccc(F)c3F)cc(C)cc12 (single isomer, unassigned) [Example 3, ent-N-(2-Amino-2-methylbutyl)-2,5-dimethyl-7-[(2,3,6-trifluorobenzyl)oxy]pyrazolo[1,5-a]pyridine-3-carboxamide] | 0.3 µM
CCCC(C)(N)CNC(=O)c1c(C)nn2c(OCc3c(F)ccc(F)c3F)cc(C)cc12 (single isomer, unassigned) [Example 4, ent-N-(2-Amino-2-methylpentyl)-2,5-dimethyl-7-[(2,3,6-trifluorobenzyl)oxy]pyrazolo[1,5-a]pyridine-3-carboxamide] | 0.2 µM
Cc1cc(OCc2c(F)cccc2F)n2nc(C)c(C(=O)NCC(=O)NC3CC3)c2c1 [Example 89, N-[2-(Cyclopropylamino)-2-oxoethyl]-7-[(2,6-difluorobenzyl)oxy]-2,5-dimethylpyrazolo[1,5-a]pyridine-3-carboxamide] | 3.0 µM
Cc1cc(OCc2c(F)cccc2F)n2nc(C)c(C(=O)NCC3CCC(C#N)CC3)c2c1 (centres unmarked) [Example 62, N-[(4-Cyanocyclohexyl)methyl]-7-[(2,6-difluorobenzyl)oxy]-2,5-dimethylpyrazolo[1,5-a]pyridine-3-carboxamide] | 3.0 µM
CCCC(C)(N)CNC(=O)c1c(C)nn2c(OCc3cccc(F)c3F)cc(C)cc12 (racemic) [Example 158, rac-N-(2-Amino-2-methylpentyl)-7-[(2,3-difluorobenzyl)oxy]-2,5-dimethylpyrazolo[1,5-a]pyridine-3-carboxamide] | 1.0 µM
Cc1cc(OCc2c(F)cccc2F)n2nc(C)c(C(=O)NCC(C)(N)CC(C)C)c2c1 (racemic) [Example 92, rac-N-(2-Amino-2,4-dimethylpentyl)-7-[(2,6-difluorobenzyl)oxy]-2,5-dimethylpyrazolo[1,5-a]pyridine-3-carboxamide] | 0.3 µM
Cc1cc(OCc2c(F)cccc2F)n2nc(C)c(C(=O)NC(CN)c3ccc(F)c(F)c3)c2c1 (stereo not drawn) [Example 133, ent-N-[2-Amino-1-(3,4-difluorophenyl)ethyl]-7-[(2,6-difluorobenzyl)oxy]-2,5-dimethylpyrazolo[1,5-a]pyridine-3-carboxamide] | 0.3 µM
Cc1cc(OCc2c(F)cccc2F)n2nc(C)c(C(=O)NCC(C)(N)CCC(F)(F)F)c2c1 (single isomer, unassigned) [Example 42, ent-N-(2-Amino-5,5,5-trifluoro-2-methylpentyl)-7-[(2,6-difluorobenzyl)oxy]-2,5-dimethylpyrazolo[1,5-a]pyridine-3-carboxamide] | 0.3 µM
Cc1cc(OCc2c(F)ccc(F)c2F)n2nc(C)c(C(=O)NC3CC(C)(C)NC(C)(C)C3)c2c1 [Example 9, 2,5-Dimethyl-N-(2,2,6,6-tetramethylpiperidin-4-yl)-7-[(2,3,6-trifluorobenzyl)oxy]pyrazolo[1,5-a]pyridine-3-carboxamide] | 1.0 µM
Cc1cc(OCc2c(F)cccc2F)n2nc(C)c(C(=O)NCC(N)c3csc4ccccc34)c2c1 (racemic) [Example 112, rac-N-[2-Amino-2-(1-benzothiophen-3-yl)ethyl]-7-[(2,6-difluorobenzyl)oxy]-2,5-dimethylpyrazolo[1,5-a]pyridine-3-carboxamide] | 10 µM
Cc1cc(OCc2c(F)cccc2F)n2nc(C)c(C(=O)NCC(C)(N)CC(F)F)c2c1 (single isomer, unassigned) [Example 46, ent-N-(2-Amino-4,4-difluoro-2-methylbutyl)-7-[(2,6-difluorobenzyl)oxy]-2,5-dimethylpyrazolo[1,5-a]pyridine-3-carboxamide] | 2.0 µM
COCC(C)(N)CNC(=O)c1c(C)nn2c(OCc3c(F)cccc3F)cc(C)cc12 (racemic) [Example 97, rac-N-(2-Amino-3-methoxy-2-methylpropyl)-7-[(2,6-difluorobenzyl)oxy]-2,5-dimethylpyrazolo[1,5-a]pyridine-3-carboxamide] | 1.0 µM
Cc1cc(OCc2c(F)cccc2F)n2nc(C)c(C(=O)N[C@H]3CCNC3=O)c2c1 [Example 149, 7-[(2,6-Difluorobenzyl)oxy]-2,5-dimethyl-N-[(3S)-2-oxopyrrolidin-3-yl]pyrazolo[1,5-a]pyridine-3-carboxamide] | 1.0 µM
Cc1cc(OCc2c(F)cccc2F)n2nc(C)c(C(=O)NC3COc4ccccc43)c2c1 (racemic) [Example 108, rac-7-[(2,6-Difluorobenzyl)oxy]-N-(2,3-dihydro-1-benzofur-3-yl)-2,5-dimethylpyrazolo[1,5-a]pyridine-3-carboxamide] | 0.3 µM
Cc1cc(OCc2c(F)cccc2F)n2nc(C)c(C(=O)NC3(c4ccc(F)c(F)c4)CC3)c2c1 [Example 90, 7-[(2,6-Difluorobenzyl)oxy]-N[1-(3,4-difluorophenyl)cyclopropyl]-2,5-dimethylpyrazolo[1,5-a]pyridine-3-carboxamide] | 0.1 µM
COC(=O)C12CCC(NC(=O)c3c(C)nn4c(OCc5c(F)cccc5F)cc(C)cc34)(CC1)CC2 [Example 152, methyl 4-[({7-[(2,6-difluorobenzyl)oxy]-2,5-dimethylpyrazolo[1,5-a]pyridin-3-yl}carbonyl)amino]bicyclo[2.2.2]octane-1-carboxylate] | 0.3 µM
Cc1cc(OCc2c(F)cccc2F)n2nc(C)c(C(=O)NC3CCC(N)C3)c2c1 (racemic) [Example 130, rac-N-(3-Aminocyclopentyl)-7-[(2,6-difluorobenzyl)oxy]-2,5-dimethylpyrazolo[1,5-a]pyridine-3-carboxamide] | 3.0 µM
CCCC[C@H](CO)NC(=O)c1c(C)nn2c(OCc3c(F)cccc3F)cc(C)cc12 [Example 144, 7-[(2,6-Difluorobenzyl)oxy]-N-[(2R)-1-hydroxyhexan-2-yl]-2,5-dimethylpyrazolo[1,5-a]pyridine-3-carboxamide] | 0.1 µM
Cc1cc(OCc2c(F)cccc2F)n2nc(C)c(C(=O)NCC3(N)COC3)c2c1 [Example 60, N-[(3-Aminooxetan-3-yl)methyl]-7-[(2,6-difluorobenzyl)oxy]-2,5-dimethylpyrazolo[1,5-a]pyridine-3-carboxamide] | 3.0 µM
